Test results published in patent US4558127A, “5-Fluorouracil nitroxyl derivatives possessing antitumor activity” (priority 1984, dated 1985).
Entries after “also recorded” stand apart in the source; their conditions may differ. Where a name gives a salt, the structure may show the parent alone.

Key:
adenocarcinoma 755 = assay: Kinetic curves of tumor volume gain, adenocarcinoma 755 in mice (FIG. 2); details: C 57 B1 mice, equimolar single doses 0.2 mmol/kg i/p, daily over 10 days
Protocol: To reveal the antitumor activity and kinetic characteristic of the therapeutic effectiveness of compound (IV) and Ftorafur in the case of adenocarcinoma 755, a series of experiments was conducted on mice C 57 B1. Adenocarcinoma 755 was grafted using a tumor cell suspension in a physiological solution (dilution 1:1 by mass) and was administered hypodermally in the dose of 0.3 ml to each mouse. The test compounds were administered intraperitoneally, starting from the 1-st day after grafting of the tumor, daily over the period of 10 days.
The tumor volume increase (V) of adenocarcinoma 755 was determined in cm^3 for 28 days (.tau.).
In the kinetic curve 5 experimental points corresponding to the control experiment are conventionally shown as circles, while experimental points corresponding to the use of Ftorafur are conventionally shown as squares.

[1] = background art; cited from earlier work
Walker carcinosarcoma = details: background art; cited from earlier work
sarcoma 180 = details: background art; cited from earlier work
Schwetz erythroleukosis = assay: Antitumor activity on grafted Schwetz erythroleukosis in rats; format: in vivo, rat; details: for Inhibition of tumor volume gain: mongrel rats, days 7-14
From the text: (§1) For the determination of antitumor activity these compounds (I, II, III, IV), 5-fluorouracyl and Ftorafur were used in the same solvents as in the determination of toxicity.
(§2) The determination of antitumor activity was effected on grafted tumors of mice: leukemia L-1210, leukemia P-388, Leukemia La, melanoma B-16, adenocarcinoma 755 (Ca-755), as well as on grafted tumors of rats: Schwetz erythroleukosis, Walker carcinosarcoma (WCS), Geren carcinoma.
(§3) In the determination of the antitumor activity the test compounds were introduced in equitoxic doses. Ftorafur was also used in the optimal dose which is equal to […].
(§4) As the criterion of antitumor activity on solid tumors used is the inhibition (I) of the tumor volume gain in comparison with the control, expressed in percent and calculated by the formula: [formula] wherein Vc --average volume of the tumor in the control,
(§5) Vt --average volume of the tumor in the experiment.

leukemia La [2] = assay: Antitumor activity on grafted leukemia La in mice (ELS, kinetic criterion, chemotherapeutic index); format: in vivo, mouse; details: for Chemotherapeutic index I60 = LD10/ED60 / ELS (extension of average life span) / kinetic criterion (.chi.) = 1-.phi.t/.phi.c: La, C57Bl mice; for Chemotherapeutic index I60 = LD10/ED60: i/p
From the text: as §1, §2
Leukemia La was grafted intraperitoneally using a suspension of leukemic cells in a physiological solution. The inoculum contained 10^8 of leukemia cells. […]
In the determination of the antitumor activity the test compounds were introduced in equitoxic doses.
(§6) The criterion of the antitumor activity for leukemia P-338, L-1210 and La is the extension of an average life span (ELS) of the test animals as compared to the control ones, expressed in percent and calculated by the formula: [formula] wherein Lt --life span of animals in the test group;
(§7) Lc --life span of animals in the control group, i.e. without administration of the test compounds.
(§8) The comparative assessment of the scope of therapeutic action is effected using chemotherapeutic indices I40, I60 and I100 : I40 =LD10 /ED40, I60 =LD10 /ED60 I100 =LD10 /ED100, where LD10 =dose causing death of 10% of the animals; ED40, ED60 and ED100 are effective doses causing extension of the animal's life span by 40, 60 and 100 percent respectively.

[3] = Toxicity (LD50), intraperitoneal administration, mongrel white mice, Burns method; format: in vivo, mouse
From the text: Toxicity of the compounds according to the present invention has been determined on mongrel white mice in experimental intraperitoneal administration of these compounds and evaluated by the Burns method (using curves of accumulation of the animal death frequencies vs. dose).
As the toxicity characteristic use was made of the dose causing death of 50% of the animals employed for the experiment (LD50).
For the determination of toxicity of (1,3-bis-(2,2,5,5-tetramethyl-1-oxyl-Δ^3 -pyrrolin-3-oyl)-5-fluorouracyl(compound I), 1-(2,2,5,5-tetramethyl-1-oxyl-Δ^3 -pyrrolin-3-oyl)-5-fluorouracyl (compound II) and 3-(2,2,5,5-tetramethyl-1-oxyl-Δ^3 -pyrrolin-3-oyl)-5-fluorouracyl (compound III), these compounds were administered intraperitoneally in the form of an emulsion in a 10% aqueous solution of polyoxyethylsorbitan monooleate (Tween-80, Ferak Berlin West Germany).
For the determination of toxicity of sodium salt of 3-(2,2,5,5-tetramethyl-1-oxyl-Δ^3 -pyrrolin-3-oyl)-5-fluorouracyl (compound IV), Ftorafur and 5-fluorouracyl, these compounds were also administered intraperitoneally in the form of aqueous solutions.

Harding-Passey melanoma = details: background art; cited from earlier work
melanoma B-16 = assay: Antitumor activity on grafted melanoma B-16 in mice (inhibition of tumor volume gain); format: in vivo, mouse; details: for Inhibition of tumor volume gain: B-16, CBAF1 mice
From the text: as §1, §2, §3, §4, §5

[4] = system: alveolar carcinoma of liver; details: background art; cited from earlier work
leukemia L-1210 = assay: Antitumor activity on grafted leukemia L-1210 in mice; format: in vivo, mouse; details: for ELS (extension of average life span): control life span 7,5 days
From the text: as §1, §2
Leukemia L-1210 was grafted intraperitoneally, 10^5 cells in 0.2 ml of ascitic liquid.
as §3, §6, §7, §8

[5] = system: Walker carcinosarcoma (WCS); assay: Antitumor activity on grafted Walker carcinosarcoma in rats; format: in vivo, rat
From the text: as §1, §2, §3, §4, §5

leukemia La [6] = assay: Kinetic curves of spleen mass, leukemia La in mice (FIG. 1); format: in vivo, mouse; details: equimolar single doses 0.2 mmol/kg i/p
Protocol: Leukemia La was grafted intraperitoneally by means of a suspension of leukemic cells in a physiological solution. The inoculum contained 10^8 of leukemic cells. Compound (IV), Ftorafur and 5-fluorouracyl were also administered intraperitoneally so that the first administration was effected 3 hours after the tumor grafting, and then--on a daily basis over the period of seven days.
Determined were the variations of mass (M) of mice spleen in g over 14 days (.tau.). The obtained data were used to plot a graph in coordinates M-.tau. represented in FIG. 1.

[7] = Reaction of aqueous solutions; format: physicochemical
Geren carcinoma = assay: Antitumor activity on grafted Geren carcinoma in rats; format: in vivo, rat; details: mongrel rats, single dose 60 mg/kg i/p, days 7-16
From the text: as §1, §2, §3, §4, §5

Solubility = format: physicochemical; details: water
[8] = system: adenocarcinoma 755 (Ca-755); assay: Antitumor activity on grafted adenocarcinoma 755 in mice; format: in vivo, mouse
From the text: as §1, §2, §3, §4, §5

[9] = Stability against hydrolysis; format: physicochemical; details: room temperature, pH 3 to 11, about 5 hours
grafted tumors = assay: Antitumor activity on grafted tumors, overall assessment; format: in vivo, mice and rats
From the text: as §1, §2, §3, §6
As the criterion of antitumor activity on solid tumors used is the inhibition (I) of the tumor volume gain in comparison with the control, expressed in percent and calculated by the formula: [formula] wherein Vc --average volume of the tumor in the control, […]

leukemia P-388 = assay: Antitumor activity on grafted leukemia P-388 in mice; format: in vivo, mouse; details: for ELS (extension of average life span): control life span 10 days
From the text: as §1, §2
Leukemia P-388 was grafted intraperitoneally, 10^6 cells in 0.2 ml of ascitic liquid.
as §3, §6, §7, §8

[10] = single dose 45 mg/kg i/p, days 1-6
[11] = Ca-755, C57Bl mice, single dose 65 mg/kg i/p, days 1-10

## O=c1[nH]c(=O)n(C2CCCO2)cc1F (stereo not drawn) [Ftorafur, 1-(α-furanidyl)-5-fluorouracyl, reference compound]
Adenocarcinoma 755
  inhibition of tumor growth, in words: no antitumor activity
[1]
  toxicity / side effects in words: inhibits hemopoiesis and causes complications on the side of the gastro-intestinal tract
Walker carcinosarcoma
  activity in respect of Walker carcinosarcoma: rather high activity
Sarcoma 180
  activity in respect of sarcoma 180: rather high activity
Schwetz erythroleukosis; single dose 90 mg/kg i/p
  Inhibition of tumor volume gain: 15%
Leukemia La [2]; days 1,5,9
  Chemotherapeutic index I60 = LD10/ED60: 2.0
Leukemia La [2]; [10]
  ELS (extension of average life span): 15%
  kinetic criterion (.chi.) = 1-.phi.t/.phi.c: 0.17
Leukemia La [2]; single dose 300 mg/kg i/p, days 1,5,9
  ELS (extension of average life span): 60%
[3]; mouse, in vivo, ip, mice, intraperitoneal, I, II, III as emulsion in 10% aqueous Tween-80, IV, Ftorafur, 5-fluorouracyl as aqueous solutions
  LD50: 640 mg/kg
Harding-Passey melanoma
  activity in respect of Harding-Passey melanoma: rather high activity
Melanoma B-16; single dose 300 mg/kg, days 1,5,9, mode of grafting printed i/p
  Inhibition of tumor volume gain: 10%
[4]
  activity in respect of alveolar carcinoma of liver: rather high activity

## CC1(C)C=C(C(=O)n2c(=O)[nH]cc(F)c2=O)C(C)(C)N1[O] [IV, sodium salt of 3-(2,2,5,5-tetramethyl-1-oxyl-Δ^3-pyrrolin-3-oyl)-5-fluorouracyl]
Adenocarcinoma 755
  inhibition of tumor growth, in words: considerable inhibition of the tumor growth
Leukemia L-1210; L-1210, BDF1 mice, i/p, days 1-7
  Chemotherapeutic index I60 = LD10/ED60: 5,6
Leukemia L-1210; L-1210, BDF1 mice, single dose 65 mg/kg i/p, days 1-9
  ELS (extension of average life span): 100%
Leukemia L-1210; L-1210, BDF1 mice, single dose 75 mg/kg i/p, days 1-7
  ELS (extension of average life span): 60%
Leukemia L-1210; mouse, in vivo
  antitumor activity, leukemia L-1210, in words: high antitumor activity
Schwetz erythroleukosis; comparable doses and treatment procedures
  effectiveness relative to Ftorafur and 5-fluorouracyl, fold: 2-3 times
Schwetz erythroleukosis; single dose 75 mg/kg i/p
  Inhibition of tumor volume gain: 45%
[5]; WCS, mongrel rats, single dose 60 mg/kg i/p, days 1-10
  Inhibition of tumor volume gain: 75%
[5]; rat, in vivo
  antitumor activity, Walker carcinosarcoma, in words: considerable antitumor activity
Leukemia La [2]; days 1,3,5,7,9
  Chemotherapeutic index I60 = LD10/ED60: 4,2
Leukemia La [2]; single dose 75 mg/kg i/p, days 1-7 after grafting
  kinetic criterion (.chi.) = 1-.phi.t/.phi.c: 0,7
Leukemia La [2]; single dose 75 mg/kg i/p, days 1-7 after grafting, control life span 6,5 days
  ELS (extension of average life span): 80%
Leukemia La [2]; single dose 100 mg/kg i/p, days 1,3,5,7,9, control life span 6,5 days
  ELS (extension of average life span): 60%
Leukemia La [2]; leukemia La
  chemotherapeutic index I60 relative to that of 5-fluorouracyl, fold: 1.2 time
  chemotherapeutic index I60 relative to that of Ftorafur, fold: 2 times
  therapeutic effect compared with 5-fluorouracyl, in words: comparable with that of 5-fluorouracyl
Leukemia La [2]; leukemia La, equitoxic doses, comparable treatment schedules
  effectiveness superior to Ftorafur, fold: 5 times
Leukemia La [6]; C 57 B1 mice, daily over seven days
  inhibition of leukemia La (spleen mass gain), in words: most effective in inhibition of leukemia La
Leukemia La [6]
  activity relative to 5-fluorouracyl (spleen mass gain), in words: by several times superior
[7]
  reaction of aqueous solutions: alkaline reaction
[3]; general statement
  toxicity in words: low toxicity
[3]; mice, i/p
  toxicity compared with Ftorafur, in words: approach toxicity of Ftorafur
[3]; mice, i/p, relative to 5-fluorouracyl
  less toxic than 5-fluorouracyl, fold: 5 times
[3]; mice, intraperitoneal, I, II, III as emulsion in 10% aqueous Tween-80, IV, Ftorafur, 5-fluorouracyl as aqueous solutions
  Toxicity, LD50: 510 mg/kg
Geren carcinoma
  Inhibition of tumor volume gain: 20%
Solubility
  solubility in water: very well soluble in water
Melanoma B-16; single dose 75 mg/kg i/p, days 1-10
  Inhibition of tumor volume gain: 30%
Melanoma B-16; melanoma B-16, comparable doses and treatment procedures
  effectiveness relative to Ftorafur, fold: 3 times
[8]; [11]
  Inhibition of tumor volume gain: 70%
  kinetic criterion (.chi.) = 1-.phi.t/.phi.c: 0.3
[8]; mouse, in vivo
  antitumor activity, adenocarcinoma 755, in words: considerable antitumor activity
[9]
  stability against hydrolysis: do not undergo any noticeable hydrolytical decomposition
Grafted tumors; in vivo
  antileukemic effect, in words: high antileukemic activity
Grafted tumors; solid tumors
  effect on solid tumors, in words: most active; also recorded: high antitumor activity in respect of solid tumors
Leukemia P-388; P-388, BDF1 mice, i/p, days 1,3,5,7,9
  Chemotherapeutic index I100 = LD10/ED100: 4,2
Leukemia P-388; P-388, BDF1 mice, single dose 75 mg/kg i/p, days 1-7
  ELS (extension of average life span): 90%
Leukemia P-388; P-388, BDF1 mice, single dose 100 mg/kg i/p, days 1,3,5,7,9
  ELS (extension of average life span): 100%
Leukemia P-388; mouse, in vivo
  antitumor activity, leukemia P-388, in words: high antitumor activity
